Active and inactive are the calls of the source. No cut-off for these calls is given here.
Assays:
Thymidylate synthase = target: T1, Thymidylate synthase (Lactobacillus casei, UniProt P00469); assay: Competitive inhibition of thymidylate synthase purified from methotrexate-resistant Lactobacillus casei using 2'-deoxy[5-3H]uridine 5'-phosphate by radioisotope assay; set-up: species or system Lacticaseibacillus casei
T1 sequence (P00469 whole entry): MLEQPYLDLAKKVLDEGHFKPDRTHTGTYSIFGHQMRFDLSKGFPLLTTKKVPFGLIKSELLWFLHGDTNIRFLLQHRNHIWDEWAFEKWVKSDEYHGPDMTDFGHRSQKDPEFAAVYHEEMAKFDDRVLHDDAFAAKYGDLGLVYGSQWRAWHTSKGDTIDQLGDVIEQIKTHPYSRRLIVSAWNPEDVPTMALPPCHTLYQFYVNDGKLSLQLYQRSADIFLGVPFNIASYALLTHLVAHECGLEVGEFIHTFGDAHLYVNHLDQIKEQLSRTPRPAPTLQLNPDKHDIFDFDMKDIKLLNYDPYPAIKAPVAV

[1] = target: T2, Thymidylate synthase (Lactobacillus casei) (UniProt P00469); assay: Irreversible inhibition of thymidylate synthase purified from methotrexate-resistant Lactobacillus casei using 2'-deoxy[5-3H]uridine 5'-phosphate preincubated at 4 uM for 12 mins in absence of co-factor; conditions: Lacticaseibacillus casei
T2 sequence (whole entry): T1 sequence (P00469 whole entry)

SMILES | Ki (Thymidylate synthase) | inhibition [1]
O=c1[nH]c(=O)n([C@H]2C[C@H](O)[C@@H](COP(=O)(O)O)O2)cc1[N+](=O)[O-] | 29 nM | 
N#Cc1cn([C@H]2C[C@H](O)[C@@H](COP(=O)(O)O)O2)c(=O)[nH]c1=O | 550 nM | inactive
O=c1[nH]c(=O)n([C@H]2C[C@H](O)[C@@H](COP(=O)(O)O)O2)cc1S | 40 nM | 
